In patent US10093656B2, “Fused-ring or tricyclic aryl pyrimidine compound used as kinase inhibitor” (NANJING SANHOME PHARMACEUTICAL CO., LTD, priority 2015, dated 2018) one finds IC50 data, which are given here for one compound.

For one assay, the target named is T1, EGFR d746-750/T790M (Homo sapiens, UniProt P00533, DEL746-750/T790M).
T1 construct: purchased Carna Biosciences (Japan)
The experiment in a line: EGFR d746-750/T790M enzyme HTRF inhibition assay. As to conditions: 40 μM ATP. The class given is biochemical. In short, it runs like this: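 0.025 nM enzyme with 1 μM biotin-TK1 peptide and 40 μM ATP, 60 min at 23° C; compound tested at 10 doses, 300 nM to 0.015 nM final. HTRF read (Eu-anti-TK1 antibody 2 nM, XL665 62.5 nM, 60 min at 23° C); IC50 from four-parameter fit of % inhibition.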
Background: In TR-FRET formats the signal depends on donor and acceptor labels being close together.

A further assay addresses T2, EGFR wild type (Homo sapiens, UniProt P00533).
T2 construct: purchased Life technology (Madison, Wis.)
The experiment in a line: Wild-type EGFR enzyme HTRF inhibition assay. The class given is biochemical. Particulars: 25 μM ATP, read-out: EGFR WT IC50. In short, it runs like this:
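HTRF with 0.05 nM wild-type EGFR, 1 μM biotin-TK1 peptide, 25 μM ATP, 60 min at 23° C; detected with Eu-anti-TK1 antibody 2 nM and XL665 62.5 nM, 60 min at 23° C. Ten 3-fold doses, 300 nM to 0.015 nM final; IC50 by four-parameter fit of % inhibition.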

Broadly, the IC50 is the concentration that gives 50% inhibition.

T1 sequence (P00533 with tags, fused parts or gaps DEL746-750/T790M limits assumed): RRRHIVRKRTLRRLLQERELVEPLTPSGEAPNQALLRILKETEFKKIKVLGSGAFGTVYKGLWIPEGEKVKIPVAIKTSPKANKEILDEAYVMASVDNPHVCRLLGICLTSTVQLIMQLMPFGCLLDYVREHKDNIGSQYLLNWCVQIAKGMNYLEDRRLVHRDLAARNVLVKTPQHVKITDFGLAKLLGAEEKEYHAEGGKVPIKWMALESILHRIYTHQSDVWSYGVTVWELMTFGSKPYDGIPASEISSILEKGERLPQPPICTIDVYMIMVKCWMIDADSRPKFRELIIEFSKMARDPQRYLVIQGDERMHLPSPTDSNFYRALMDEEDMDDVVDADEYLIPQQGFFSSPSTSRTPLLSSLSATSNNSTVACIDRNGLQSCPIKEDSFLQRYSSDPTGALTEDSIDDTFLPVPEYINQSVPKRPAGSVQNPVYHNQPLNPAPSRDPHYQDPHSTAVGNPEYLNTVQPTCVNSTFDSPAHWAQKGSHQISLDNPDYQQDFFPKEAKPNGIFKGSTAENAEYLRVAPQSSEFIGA
T2 sequence (P00533 25-1210): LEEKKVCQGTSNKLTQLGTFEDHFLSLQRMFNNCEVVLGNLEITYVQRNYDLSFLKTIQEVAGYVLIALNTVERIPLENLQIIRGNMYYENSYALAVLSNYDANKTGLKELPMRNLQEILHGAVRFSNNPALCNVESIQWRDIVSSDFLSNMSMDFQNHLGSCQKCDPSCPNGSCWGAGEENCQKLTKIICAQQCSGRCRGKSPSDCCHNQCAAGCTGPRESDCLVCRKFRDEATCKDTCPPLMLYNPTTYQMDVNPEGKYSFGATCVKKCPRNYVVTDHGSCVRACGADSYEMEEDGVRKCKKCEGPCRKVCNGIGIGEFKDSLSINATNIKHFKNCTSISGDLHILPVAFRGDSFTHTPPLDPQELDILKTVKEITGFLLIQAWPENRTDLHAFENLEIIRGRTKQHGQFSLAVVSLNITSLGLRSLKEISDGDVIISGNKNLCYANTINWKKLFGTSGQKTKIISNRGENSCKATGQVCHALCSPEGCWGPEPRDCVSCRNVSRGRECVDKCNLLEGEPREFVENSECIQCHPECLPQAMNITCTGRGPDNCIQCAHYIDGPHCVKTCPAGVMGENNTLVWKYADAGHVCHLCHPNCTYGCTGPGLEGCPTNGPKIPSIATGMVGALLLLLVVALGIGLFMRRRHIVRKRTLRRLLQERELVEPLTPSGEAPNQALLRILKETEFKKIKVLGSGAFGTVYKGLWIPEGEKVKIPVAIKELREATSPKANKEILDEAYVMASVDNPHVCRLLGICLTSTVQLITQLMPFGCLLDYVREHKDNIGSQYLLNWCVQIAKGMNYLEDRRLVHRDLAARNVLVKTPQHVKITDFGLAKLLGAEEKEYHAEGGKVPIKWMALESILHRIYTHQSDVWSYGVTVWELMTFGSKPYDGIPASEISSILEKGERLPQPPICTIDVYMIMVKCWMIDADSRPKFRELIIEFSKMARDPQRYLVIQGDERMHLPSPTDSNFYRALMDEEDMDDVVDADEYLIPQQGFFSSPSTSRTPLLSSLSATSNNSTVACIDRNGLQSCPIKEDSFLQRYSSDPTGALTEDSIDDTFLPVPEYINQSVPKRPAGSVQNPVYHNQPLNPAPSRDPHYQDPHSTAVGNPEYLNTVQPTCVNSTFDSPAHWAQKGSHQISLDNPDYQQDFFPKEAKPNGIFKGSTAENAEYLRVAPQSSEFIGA

For `C=CC(=O)Nc1cc(Nc2ncc(F)c(-c3c4n(c5cc(F)ccc35)CCOC4)n2)c(OC)cc1N(C)CCN(C)C` [Embodiment 33, N-(2-((2-(Dimethylamino)ethyl)(methyl)amino)-5-((5-fluoro-4-(7-fluoro-3,4-dihydro-1H-[1,4]oxazino[4,3-a]indol-10-yl)pyrimidin-2-yl)amino)-4-methoxyphenyl)acrylamide], the values for the concentration for half-maximal inhibition (IC50) at EGFR d746-750/T790M and on EGFR wild type were 0.4 nM and 2.6 nM, respectively.
